From the supplement of paper PMC10307832

How the values were obtained:
Assay in all cases: relative viability (nuclei count vs DMSO), 5 days (fraction); higher = more cells survive
[1] = compound: CC1=NC=CC(=C1)C2=CC=C(C=C2)CC(=O)NC3=CC=C(C=C3)C4=CN=CC=C4 [Wnt-C59] + CC(=O)Nc1cccc(-n2c(=O)n(C3CC3)c(=O)c3c(Nc4ccc(I)cc4F)n(C)c(=O)c(C)c32)c1 [Trametinib] (partner 0.02 µM)
In short: (§1)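 After 5 days of treatment, lung cancer cells in 1536-well plates were fixed and stained in a single step (final 0.05% Triton X-100, 1% formaldehyde, 1 ug/ml Hoechst) and their nuclei counted on 4× images. Treatment had been applied by pin tool the day after seeding as one drug alone or as a fixed anchor-drug dose with five library-drug doses (not always all listed) in √10 steps. Relative viability is the nuclei count of treated wells divided by that of vehicle wells, and values are medians of duplicate plates.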

[2] = compound: CC1=NC=CC(=C1)C2=CC=C(C=C2)CC(=O)NC3=CC=C(C=C3)C4=CN=CC=C4 [Wnt-C59] + CC1(C)CCC(c2ccc(Cl)cc2)=C(CN2CCN(c3ccc(C(=O)NS(=O)(=O)c4ccc(N[C@H](CCN5CCOCC5)CSc5ccccc5)c(S(=O)(=O)C(F)(F)F)c4)cc3)CC2)C1 [Navitoclax] (partner 0.5 µM)
In short: as §1

[3] = compound: CC1=NC=CC(=C1)C2=CC=C(C=C2)CC(=O)NC3=CC=C(C=C3)C4=CN=CC=C4 [Wnt-C59] + O=C(CCCCCCC(=O)Nc1ccccc1)NO [Vorinostat] (partner 1 µM)
In short: as §1

[4] = compound: CS(=O)(=O)CCNCc1ccc(-c2ccc3ncnc(Nc4ccc(OCc5cccc(F)c5)c(Cl)c4)c3c2)o1 [Lapatinib] + Nc1ncn([C@H]2C[C@H](O)[C@@H](CO)O2)c(=O)n1 [Decitabine] (partner 2 µM)
In short: as §1

Row | Cell Line | relative viability ([1]; first compound 0.001 µM) | relative viability ([1]; first compound 0.01 µM) | relative viability ([1]; first compound 0.03162 µM) | relative viability ([1]; first compound 0.1 µM) | relative viability ([2]; first compound 0.001 µM) | relative viability ([2]; first compound 0.01 µM) | relative viability ([2]; first compound 0.03162 µM) | relative viability ([2]; first compound 0.1 µM) | relative viability ([3]; first compound 0.001 µM) | relative viability ([3]; first compound 0.01 µM) | relative viability ([3]; first compound 0.03162 µM) | relative viability ([3]; first compound 0.1 µM) | relative viability ([4]; first compound 0.02 µM) | relative viability ([4]; first compound 0.06325 µM) | relative viability ([4]; first compound 0.2 µM) | relative viability ([4]; first compound 0.6325 µM) | relative viability ([4]; first compound 2 µM)
1 | BEN | 1.13 | 0.995 | 1 | 1.04 | 0.0424 | 0.0676 | 0.0835 | 0.0708 | 0.581 | 0.523 | 0.675 | 0.579 | 0.413 | 0.743 | 0.725 | 0.748 | 0.665
2 | NCI-H1666 | 0.894 | 0.762 | 0.94 | 0.79 | 1.14 | 0.909 | 1.01 | 0.863 | 0.964 | 1 | 0.913 | 1.05 | 0.599 | 0.72 | 0.709 | 0.641 | 0.58
3 | NCI-H2009 | 0.267 | 0.315 | 0.267 | 0.294 | 1.13 | 1.23 | 1.14 | 1.14 | 0.722 | 0.679 | 0.758 | 0.712 | 0.383 | 0.4 | 0.342 | 0.353 | 0.357
4 | LOU-NH91 | 0.817 | 0.788 | 0.802 | 0.792 | 0.823 | 0.573 | 0.638 | 0.713 | 0.868 | 0.864 | 0.886 | 0.978 | 0.789 | 0.709 | 0.65 | 0.663 | 0.652
5 | NCI-H441 | 0.474 | 0.451 | 0.465 | 0.434 | 0.709 | 1.06 | 0.743 | 0.517 | 0.786 | 0.867 | 0.806 | 0.887 | 0.239 |  | 0.268 | 0.266 | 0.214
6 | NCI-H1355 | 0.455 | 0.404 | 0.423 | 0.373 | 1.01 | 0.876 | 0.905 | 0.88 | 0.639 | 0.529 | 0.601 | 0.596 | 0.352 | 0.33 | 0.333 | 0.307 | 0.353
7 | HCC-366 | 0.398 | 0.4 | 0.385 | 0.341 | 1.06 | 0.926 | 0.932 | 1.01 | 0.338 | 0.2 | 0.309 | 0.335 |  | 0.348 | 0.405 | 0.368 | 0.291
8 | LK-2 | 0.767 | 0.869 | 0.713 | 0.817 | 0.884 | 0.972 | 1.02 | 0.868 | 0.441 | 0.295 | 0.3 | 0.233 | 0.196 |  | 0.331 | 0.363 | 0.411
9 | COR-L23 | 0.626 | 0.648 | 0.684 | 0.56 | 1.13 | 1.02 | 1.17 | 0.944 | 0.457 | 0.452 | 0.624 | 0.454 | 0.516 | 0.421 | 0.456 | 0.417 | 0.422
10 | PC-14 | 0.97 | 0.911 | 0.9 | 0.729 | 1 | 1.15 | 1.06 | 1.02 | 0.815 | 0.96 | 0.886 | 0.723 | 0.271 | 0.277 | 0.246 | 0.223 | 0.193
11 | NCI-H2087 | 0.203 | 0.176 | 0.205 | 0.259 | 1.03 | 0.981 | 1.01 | 0.93 | 0.905 | 0.336 | 0.788 | 0.764 | 0.26 | 0.164 | 0.251 | 0.228 | 0.234
12 | HCC-15 | 0.417 | 0.371 | 0.404 | 0.359 | 0.799 | 0.708 | 0.7 | 0.76 | 0.851 | 0.817 | 1.05 | 0.892 |  | 0.537 | 0.677 | 0.64 | 0.568
13 | NCI-H2126 | 0.579 | 0.532 | 0.573 | 0.581 | 0.865 | 0.87 | 0.866 | 0.872 | 0.841 | 0.62 | 0.788 | 0.76 | 0.609 | 0.52 | 0.593 | 0.548 | 0.44
14 | EMC-BAC-2 | 0.797 | 0.697 | 0.793 | 0.713 | 1.11 | 0.97 | 1.16 | 0.969 | 0.421 | 0.412 | 0.409 | 0.751 |  | 0.864 |  | 0.945 | 0.956
15 | NCI-H520 | 0.709 | 0.743 | 0.598 | 0.643 | 1.11 | 1.13 | 1.11 | 1.05 | 0.742 | 0.683 | 0.686 | 0.634 | 0.433 | 0.494 | 0.572 | 0.529 | 0.575
16 | LXF-289 | 0.617 | 0.629 | 0.73 | 0.632 | 0.999 | 0.912 | 0.929 | 0.948 | 0.72 | 0.766 | 0.783 | 0.801 | 0.358 | 0.377 | 0.354 | 0.385 | 0.408
17 | EPLC-272H | 0.275 | 0.277 | 0.316 | 0.298 | 1.09 | 1 | 1.06 | 1.21 | 0.394 | 0.561 | 0.512 | 0.396 |  | 0.361 | 0.352 | 0.34 | 0.366

Row | Cell Line | relative viability ([1]; first compound 0.001 µM) | relative viability ([1]; first compound 0.01 µM) | relative viability ([1]; first compound 0.03162 µM) | relative viability ([1]; first compound 0.1 µM) | relative viability ([2]; first compound 0.001 µM) | relative viability ([2]; first compound 0.01 µM) | relative viability ([2]; first compound 0.03162 µM) | relative viability ([2]; first compound 0.1 µM) | relative viability ([3]; first compound 0.001 µM) | relative viability ([3]; first compound 0.01 µM) | relative viability ([3]; first compound 0.03162 µM) | relative viability ([3]; first compound 0.1 µM) | relative viability ([4]; first compound 0.02 µM) | relative viability ([4]; first compound 0.06325 µM) | relative viability ([4]; first compound 0.2 µM) | relative viability ([4]; first compound 0.6325 µM) | relative viability ([4]; first compound 2 µM)
18 | NCI-H838 | 0.538 | 0.55 | 0.491 | 0.482 | 1.24 | 1.18 | 1.18 | 1.16 | 0.709 | 0.704 | 0.786 | 0.708 | 0.475 | 0.453 | 0.495 | 0.484 | 0.44
19 | NCI-H2405 | 0.655 | 0.587 | 0.505 | 0.574 | 0.946 |  | 0.702 | 0.867 | 1 | 1.05 | 1.15 | 1.17 |  | 0.602 |  | 0.709 | 0.616
20 | LC-2-ad | 0.904 | 0.874 | 0.905 | 0.9 | 0.478 | 0.349 | 0.614 | 0.406 | 0.699 | 0.714 | 0.742 | 0.688 |  | 0.807 | 0.715 | 0.834 | 0.692
21 | NCI-H3122 | 0.18 | 0.243 | 0.207 | 0.218 | 1.02 | 0.976 | 0.958 | 0.98 | 1.05 | 1.05 | 0.989 | 0.971 | 0.426 | 0.364 | 0.376 | 0.456 | 0.421
22 | NCI-H727 | 0.399 | 0.369 | 0.355 | 0.406 | 0.554 | 0.542 | 0.459 | 0.451 | 1.14 | 1.16 | 1.09 | 1.14 | 0.756 |  | 0.915 | 0.915 | 0.917
23 | A-427 | 0.749 | 0.746 | 0.81 | 0.876 | 0.925 | 0.9 | 0.943 | 1 | 0.851 | 0.878 | 0.874 | 0.895 | 0.561 | 0.519 | 0.597 | 0.614 | 0.498
24 | 201T | 0.698 | 0.747 | 0.733 | 0.698 | 1.21 | 1.2 | 1.19 | 1.2 | 0.979 | 0.991 | 1.03 | 0.983 | 0.845 | 0.812 | 0.813 | 0.827 | 0.817
25 | NCI-H1944 | 0.433 | 0.449 | 0.431 | 0.369 | 1.06 | 0.96 | 1.07 | 0.964 | 0.621 | 0.552 | 0.57 | 0.621 | 0.421 | 0.41 | 0.431 | 0.394 | 0.414
26 | SK-LU-1 | 0.561 | 0.506 | 0.533 | 0.422 | 0.893 | 0.832 | 1.02 | 0.893 | 0.672 | 0.768 | 0.81 | 0.682 | 0.709 | 0.558 | 0.686 | 0.609 | 0.618
27 | NCI-H1975 | 0.414 | 0.38 | 0.33 | 0.349 | 1.25 | 1.11 | 1.06 | 1.2 | 0.727 | 0.76 | 0.756 | 0.706 | 0.374 | 0.413 | 0.389 | 0.397 | 0.312
28 | NCI-H322M | 0.581 | 0.484 | 0.412 | 0.504 | 1.21 | 1.05 | 0.978 | 0.993 | 0.86 | 0.816 | 0.746 | 0.93 | 0.632 | 0.552 | 0.648 | 0.567 | 0.555
29 | NCI-H1793 | 0.495 | 0.408 | 0.385 | 0.425 | 0.397 | 0.398 | 0.378 | 0.95 | 0.626 | 0.548 | 0.81 | 0.74 |  | 0.404 | 0.418 | 0.424 | 0.44
30 | RERF-LC-KJ | 0.936 | 0.884 | 0.962 | 0.753 | 0.899 | 0.908 | 1.01 | 1.31 | 0.746 | 0.671 | 0.825 | 0.715 | 0.679 | 0.62 | 0.749 | 0.645 | 0.499
31 | NCI-H23 | 0.396 | 0.346 | 0.385 | 0.432 | 0.723 | 0.775 | 1.04 | 0.805 | 0.499 | 0.541 | 0.737 | 0.59 |  |  | 0.315 | 0.353 | 0.323
32 | NCI-H2347 | 0.357 | 0.271 | 0.318 | 0.194 | 0.897 | 0.846 | 1 | 0.748 | 0.649 | 0.644 | 0.572 | 0.717 | 0.573 | 0.514 | 0.642 | 0.605 | 0.599
33 | LCLC-97TM1 | 0.216 | 0.201 | 0.22 | 0.193 | 0.429 | 0.445 | 0.505 | 0.264 | 0.733 | 0.765 | 0.901 | 0.706 |  | 0.232 | 0.222 | 0.268 | 0.268
